Here are results for seven compounds from patent US11439641B2, “Pyrimidine JAK inhibitors for the treatment of skin diseases” (THERAVANCE BIOPHARMA R&D IP, LLC, priority 2019, dated 2022).

One data set is described as follows: Aqueous Solubility Assay. Particulars: PBS buffer pH 7.4; maximum upper limit 1,000 μM.
Data set [1] relates to IL-2 stimulated pSTAT5 in Tall-1 T cells. Description: Inhibition of IL-2 Stimulated pSTAT5 in Tall-1 T Cells. The class given is cell-based. Particulars: Tall-1 human T cell line, IL-2 300 ng/mL, AlphaLisa. The protocol: Assay 2: Inhibition of IL-2 Stimulated pSTAT5 in Tall-1 T Cells
The potency of test compounds for inhibition of interleukin-2 (IL-2) stimulated STATS phosphorylation was measured in the Tall-1 human T cell line (DSMZ) using AlphaLisa. Because IL-2 signals through JAK1/3, this assay provides a measure of JAK1/3 cellular potency.
Phosphorylated STATS was measured via the AlphaLISA SureFire Ultra pSTAT5 (Tyr694/699) kit (PerkinElmer). Human T cells from the Tall-1 cell line were cultured in a 37° C., 5% CO2 humidified incubator in RPMI (Life Technologies) supplemented with 15% Heat Inactivated Fetal Bovine Serum (FBS, Life Technologies), 2 mM Glutamax (Life Technologies), 25 mM HEPES (Life Technologies) and 1× Pen/Strep (Life Technologies). Compounds were serially diluted in DMSO and dispensed acoustically to empty wells. Assay media (phenol red-free DMEM (Life Technologies) supplemented with 10% FBS (ATCC)) was dispensed (4 μL/well) and plates shaken at 900 rpm for 10 mins. Cells were seeded at 45,000 cells/well in assay media (4 μL/well), and incubated at 37° C., 5% CO2 for 1 hour, followed by the addition of IL-2 (R&D Systems; final concentration 300 ng/mL) in pre-warmed assay media (4 μL) for 30 minutes. After cytokine stimulation, cells were lysed with 6 ul of 3× AlphaLisa Lysis Buffer (PerkinElmer) containing 1× PhosStop and Complete tablets (Roche). The lysate was shaken at 900 rpm for 10 minutes at room temperature (RT). Phosphorylated STATS was measured via the pSTAT5 AlphaLisa kit (PerkinElmer). Freshly prepared acceptor bead mixture was dispensed onto lysate (51) under green filtered <100 lux light. Plates were shaken at 900 rpm for 2 mins, briefly spun down, and incubated for 2 hrs at RT in the dark. Donor beads were dispensed (5 μL) under green filtered <100 lux light. Plates were shaken at 900 rpm for 2 minutes, briefly spun down, and incubated overnight at RT in the dark. Luminescence was measured with excitation at 689 nm and emission at 570 nm using an EnVision plate r reader (PerkinElmer) under green filtered <100 lux light.
To determine the inhibitory potency of test compounds in response to IL-2, the average emission intensity of beads bound to pSTAT5 was measured in a human T cell line. IC50 values were determined from analysis of the inhibition curves of signal intensity versus compound concentration. Data are expressed as pIC50 (negative decadic logarithm IC50) values (mean±standard deviation).
A general note: Bead proximity is the source of the signal in Alpha formats.

The target of another data set is JAK3 (Homo sapiens (Human), UniProt P52333). Description: Biochemical JAK and Tyk2 Kinase Assays (LanthaScreen), JAK3. As to conditions: 1.6 μM ATP (Km); pIC50 converted to pKi by Cheng-Prusoff. The protocol:
(§1) Assay 1: Biochemical JAK and Tyk2 Kinase Assays
(§2) A panel of four LanthaScreen JAK biochemical assays (JAK1, 2, 3 and Tyk2) were carried in a common kinase reaction buffer (50 mM HEPES, pH 7.5, 0.01% Brij-35, 10 mM MgCl2, and 1 mM EGTA). Recombinant GST-tagged JAK enzymes and a GFP-tagged STAT1 peptide substrate were obtained from Life Technologies.
(§3) Serially or discretely diluted compounds were pre-incubated with each of the four JAK enzymes and the substrate in white 384-well microplates (Corning) at ambient temperature for 1 h. ATP was subsequently added to initiate the kinase reactions in 10 μL total volume, with 1% DMSO. The final enzyme concentrations for JAK1, 2, 3 and Tyk2 are 4.2 nM, 0.1 nM, 1 nM, and 0.25 nM respectively; the corresponding Km ATP concentrations used are 25 μM, 3 μM, 1.6 μM, and 10 μM; while the substrate concentration is 200 nM for all four assays. Kinase reactions were allowed to proceed for 1 hour at ambient temperature before a 10 μL preparation of EDTA (10 mM final concentration) and Tb-anti-pSTAT1 (pTyr701) antibody (Life Technologies, 2 nM final concentration) in TR-FRET dilution buffer (Life Technologies) was added. The plates were allowed to incubate at ambient temperature for 1 h before being read on the EnVision reader (Perkin Elmer). Emission ratio signals (520 nm/495 nm) were recorded and utilized to calculate the percent inhibition values based on DMSO and background controls.
(§4) For dose-response analysis, percent inhibition data were plotted vs. compound concentrations, and IC50 values were determined from a 4-parameter robust fit model with the Prism software (GraphPad Software). Results were expressed as pIC50 (negative logarithm of IC50) and subsequently converted to pKi (negative logarithm of dissociation constant, Ki) using the Cheng-Prusoff equation.
For orientation: TR-FRET usually uses a lanthanide donor and a delayed reading to cut background.

Data set [2] can be described thus: Solubility Assay in Organic Excipients. Particulars: maximum upper limit 20,000 μM; for Solubility in MCT (mg/mL): medium chain triglycerides (MCT).
Another data set deals with JAK1 (Homo sapiens (Human), UniProt P23458). Nature of the data set: Biochemical JAK and Tyk2 Kinase Assays (LanthaScreen), JAK1. As to conditions: 25 μM ATP (Km); pIC50 converted to pKi by Cheng-Prusoff. The protocol: as §1, §2, §3, §4
Sequence of JAK1 (P23458 whole entry): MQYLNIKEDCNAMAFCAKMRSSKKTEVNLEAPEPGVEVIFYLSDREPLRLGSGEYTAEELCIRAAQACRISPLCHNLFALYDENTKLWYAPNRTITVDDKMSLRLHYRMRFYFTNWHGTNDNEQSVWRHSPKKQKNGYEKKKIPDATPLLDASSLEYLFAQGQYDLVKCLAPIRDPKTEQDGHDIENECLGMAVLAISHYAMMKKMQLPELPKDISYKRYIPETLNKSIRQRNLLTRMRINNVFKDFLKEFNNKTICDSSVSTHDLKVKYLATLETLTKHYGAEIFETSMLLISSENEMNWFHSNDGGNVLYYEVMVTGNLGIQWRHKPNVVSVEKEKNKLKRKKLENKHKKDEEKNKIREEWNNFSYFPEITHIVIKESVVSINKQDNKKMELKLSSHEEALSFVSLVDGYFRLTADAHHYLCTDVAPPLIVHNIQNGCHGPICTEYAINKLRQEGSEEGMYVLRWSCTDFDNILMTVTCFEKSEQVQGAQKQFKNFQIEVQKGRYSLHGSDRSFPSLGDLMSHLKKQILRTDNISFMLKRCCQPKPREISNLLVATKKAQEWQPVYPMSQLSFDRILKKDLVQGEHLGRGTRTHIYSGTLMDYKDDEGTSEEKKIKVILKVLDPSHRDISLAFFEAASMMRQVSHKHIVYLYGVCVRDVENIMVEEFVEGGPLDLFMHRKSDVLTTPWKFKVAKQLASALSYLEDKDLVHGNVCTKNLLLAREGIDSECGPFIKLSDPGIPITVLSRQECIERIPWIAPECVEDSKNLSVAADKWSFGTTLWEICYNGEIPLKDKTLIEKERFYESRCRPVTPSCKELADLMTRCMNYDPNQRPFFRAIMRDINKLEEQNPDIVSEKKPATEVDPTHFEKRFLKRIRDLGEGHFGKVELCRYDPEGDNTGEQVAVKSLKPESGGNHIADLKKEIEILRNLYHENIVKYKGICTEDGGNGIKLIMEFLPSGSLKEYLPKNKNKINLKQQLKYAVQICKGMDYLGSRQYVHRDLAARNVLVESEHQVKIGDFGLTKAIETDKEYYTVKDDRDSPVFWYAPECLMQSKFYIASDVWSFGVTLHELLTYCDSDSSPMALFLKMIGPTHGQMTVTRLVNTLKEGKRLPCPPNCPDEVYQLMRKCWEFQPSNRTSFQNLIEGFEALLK

Sequence of JAK3 (P52333 whole entry): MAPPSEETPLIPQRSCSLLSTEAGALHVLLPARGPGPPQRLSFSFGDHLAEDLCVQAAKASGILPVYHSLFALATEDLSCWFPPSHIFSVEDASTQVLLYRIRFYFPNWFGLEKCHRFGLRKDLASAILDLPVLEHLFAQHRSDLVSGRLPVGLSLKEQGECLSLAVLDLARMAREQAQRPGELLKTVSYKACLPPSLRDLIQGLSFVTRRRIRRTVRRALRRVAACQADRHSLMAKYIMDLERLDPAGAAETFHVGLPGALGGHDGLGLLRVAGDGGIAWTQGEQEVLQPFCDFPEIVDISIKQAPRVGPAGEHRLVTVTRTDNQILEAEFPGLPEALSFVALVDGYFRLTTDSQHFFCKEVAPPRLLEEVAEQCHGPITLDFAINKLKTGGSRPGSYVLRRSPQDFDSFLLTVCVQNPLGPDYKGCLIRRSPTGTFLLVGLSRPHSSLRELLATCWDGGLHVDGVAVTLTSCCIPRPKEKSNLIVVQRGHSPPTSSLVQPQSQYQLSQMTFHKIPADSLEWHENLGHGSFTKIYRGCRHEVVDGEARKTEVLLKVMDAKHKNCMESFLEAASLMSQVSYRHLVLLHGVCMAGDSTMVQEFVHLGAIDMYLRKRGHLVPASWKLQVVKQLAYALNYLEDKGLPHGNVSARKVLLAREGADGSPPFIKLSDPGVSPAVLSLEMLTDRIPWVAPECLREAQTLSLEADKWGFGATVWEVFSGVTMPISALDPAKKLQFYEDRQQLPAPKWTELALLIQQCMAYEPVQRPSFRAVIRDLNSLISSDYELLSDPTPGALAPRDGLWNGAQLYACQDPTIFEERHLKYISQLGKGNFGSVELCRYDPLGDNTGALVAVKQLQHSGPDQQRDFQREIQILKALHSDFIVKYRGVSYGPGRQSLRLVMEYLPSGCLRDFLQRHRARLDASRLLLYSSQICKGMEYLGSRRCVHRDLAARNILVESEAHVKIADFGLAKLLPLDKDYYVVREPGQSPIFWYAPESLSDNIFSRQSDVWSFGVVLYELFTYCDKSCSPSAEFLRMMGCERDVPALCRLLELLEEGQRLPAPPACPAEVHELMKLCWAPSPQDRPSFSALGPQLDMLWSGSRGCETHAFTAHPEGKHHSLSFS
Method for Aqueous Solubility Assay: Assay 5: Aqueous Solubility Assay
The purpose of this assay was to quantify the solubility of test compounds in pH 4 and pH 7.4 PBS buffers. The assay required 40 μL of 10 mM DMSO test compound solution per desired buffer in addition to 20 μL required to make a test standard. For example, to test a compound in both buffers, 100 μL (2*40 μL+20 μL) of 10 mM DMSO compound stock solution was required.
The standard was created by diluting 20 μL of 10 mM DMSO compound stock solution into 180 μL of methanol and was shaken for five minutes to ensure solution uniformity. […] This 1,000 μM solution was run on an Agilent 1260 LC-MS system by injecting 2 μL in order to obtain the peak area. For the test solutions, 40 μL of 10 mM DMSO compound stock solution, per PBS buffer condition, were dried down into a powder overnight. Once in powder form, 400 μL of the desired PBS buffer was added to the powder and allowed to shake vigorously for four hours. The maximum theoretical concentration for this sample solution was 1,000 μM. After four hours of shaking, the samples were centrifuged for 10 minutes at 3,000 RPM before injecting 2 μL on the same Agilent 1260 LC-MS system to obtain the peak area.
In Table 6 below, A represents a value above 500, B represents a value between 250 and 500, C represents a value between 50 and 250, D represents a value between 10 and 50, and E represents a value below 10.

Regarding `CCS(=O)(=O)N1[C@@H]2CCC[C@H]1C[C@H](N(C)c1nc(Nc3cc(C)[nH]n3)cc(C3CCOC(C)(C)C3)n1)C2` (stereo partly drawn) [Compound 2, 6-(2,2-dimethyltetrahydro-2H-pyran-4-yl)-N2-((1R,3s,5S)-9-(ethylsulfonyl)-9-azabicyclo[3.3.1]nonan-3-yl)-N2-methyl-N4-(5-methyl-1H-pyrazol-3-yl)pyrimidine-2,4-diamine], the “Solubility at PH 7.4 (μmol)” value in “Aqueous Solubility Assay” is “C (C represents a value between 50 and 250)”. For the same compound, in data set [1], the “Tall-1 IL2 pSTAT5 (pIC50)” value is reported as “A (A represents a pIC50 value ≥8.0)”. On JAK3, the “JAK 3 (pKi)” value is “B (B represents a pKi value between 9 and 10 (Ki between 1 nM and 0.1 nM))”. In data set [2], the “Solubility in PEG400 (mg/mL)” value is “C (C represents a value below 5)”, the “Solubility in Diisopropyl adipate (mg/mL)” value is “C (C represents a value below 5)”, the “Solubility in MCT (mg/mL)” value was “C (C represents a value below 5)” and the “Solubility in Propylene glycol (mg/mL)” value was “C (C represents a value below 5)”. For the same compound, the “JAK 1 (pKi)” value at JAK1 is “B (B represents a pKi value between 9 and 10 (Ki between 1 nM and 0.1 nM))”.
For `COC(=O)N1[C@@H]2CCC[C@H]1C[C@H](N(C)c1nc(Nc3cc(C)[nH]n3)cc(C3CCOC3)n1)C2` (stereo partly drawn) [Compound 6, Methyl (1R,3s,5S)-3-(methyl(4-((5-methyl-1H-pyrazol-3-yl)amino)-6-(tetrahydrofuran-3-yl)pyrimidin-2-yl)amino)-9-azabicyclo[3.3.1]nonane-9-carboxylate], the “Solubility at PH 7.4 (μmol)” value in the data set “Aqueous Solubility Assay” was “D (D represents a value between 10 and 50)”. The “Tall-1 IL2 pSTAT5 (pIC50)” value in data set [1] is listed as “A (A represents a pIC50 value ≥8.0)”. The “JAK 3 (pKi)” value at JAK3 was “C (C represents a pKi value between 8 and 9 (Ki between 10 nM and 1 nM))”. Moreover, in data set [2], the “Solubility in PEG400 (mg/mL)” value was “C (C represents a value below 5)”, the “Solubility in Diisopropyl adipate (mg/mL)” value is given as “C (C represents a value below 5)”, the “Solubility in MCT (mg/mL)” value is given as “C (C represents a value below 5)” and the “Solubility in Propylene glycol (mg/mL)” value is on record as “C (C represents a value below 5)”. The “JAK 1 (pKi)” value at JAK1 is “A (A represents a pKi value ≥10 (Ki≤0.1 nM))”.
For the compound `COC(=O)N1[C@@H]2CCC[C@H]1C[C@H](N(C)c1nc(Nc3cc(C)[nH]n3)cc(C3CCOCC3)n1)C2` [Compound 3, methyl (1R,3s,5S)-3-(methyl(4-((5-methyl-1H-pyrazol-3-yl)amino)-6-(tetrahydro-2H-pyran-4-yl)pyrimidin-2-yl)amino)-9-azabicyclo[3.3.1]nonane-9-carboxylate], the “Solubility at PH 7.4 (μmol)” value in “Aqueous Solubility Assay” was “E (E represents a value below 10)”. In addition, the “Tall-1 IL2 pSTAT5 (pIC50)” value in data set [1] was “A (A represents a pIC50 value ≥8.0)”. Also, the “JAK 3 (pKi)” value at JAK3 was “B (B represents a pKi value between 9 and 10 (Ki between 1 nM and 0.1 nM))”. Also, in data set [2], the “Solubility in PEG400 (mg/mL)” value is “C (C represents a value below 5)”, the “Solubility in Diisopropyl adipate (mg/mL)” value is “C (C represents a value below 5)”, the “Solubility in MCT (mg/mL)” value is listed as “C (C represents a value below 5)” and the “Solubility in Propylene glycol (mg/mL)” value is given as “C (C represents a value below 5)”. In addition, the “JAK 1 (pKi)” value on JAK1 is “B (B represents a pKi value between 9 and 10 (Ki between 1 nM and 0.1 nM))”.
Consider `CCC(=O)N1[C@@H]2CCC[C@H]1CC(N(C)c1nc(Nc3cc(C)[nH]n3)cc(OC3CCOC3)n1)C2` (stereo partly drawn) [Compound 46, 1-((1R,3s,5S)-3-(methyl(4-((5-methyl-1H-pyrazol-3-yl)amino)-6-((tetrahydrofuran-3-yl)oxy)pyrimidin-2-yl)amino)-9-azabicyclo[3.3.1]nonan-9-yl)propan-1-one], for which the “Solubility at PH 7.4 (μmol)” value in the data set “Aqueous Solubility Assay” is “D (D represents a value between 10 and 50)”. For the same compound, in data set [1], the “Tall-1 IL2 pSTAT5 (pIC50)” value was “A (A represents a pIC50 value ≥8.0)”. In addition, the “JAK 3 (pKi)” value on JAK3 is “B (B represents a pKi value between 9 and 10 (Ki between 1 nM and 0.1 nM))”. Besides, the “JAK 1 (pKi)” value on JAK1 is reported as “A (A represents a pKi value ≥10 (Ki≤0.1 nM))”.
For the compound `Cc1cc(Nc2cc(OCC3COC3)nc(N(C)[C@@H]3C[C@H]4CCC[C@@H](C3)N4C(=O)CC3CC3)n2)n[nH]1` [Compound 40, 2-cyclopropyl-1-((1R,3s,5S)-3-(methyl(4-((5-methyl-1H-pyrazol-3-yl)amino)-6-(oxetan-3-ylmethoxy)pyrimidin-2-yl)amino)-9-azabicyclo[3.3.1]nonan-9-yl)ethan-1-one], the “Solubility at PH 7.4 (μmol)” value in the data set “Aqueous Solubility Assay” was “D (D represents a value between 10 and 50)”. Also, the “Tall-1 IL2 pSTAT5 (pIC50)” value in data set [1] is “A (A represents a pIC50 value ≥8.0)”. Also, the “JAK 3 (pKi)” value at JAK3 was “B (B represents a pKi value between 9 and 10 (Ki between 1 nM and 0.1 nM))”. Moreover, the “JAK 1 (pKi)” value on JAK1 is recorded as “A (A represents a pKi value ≥10 (Ki≤0.1 nM))”.
`Cc1cc(Nc2cc(C3CCOC3)nc(N(C)[C@@H]3C[C@H]4CCC[C@@H](C3)N4C(=O)CC3CC3)n2)n[nH]1` (stereo partly drawn) [Compound 7, 2-cyclopropyl-1-((1R,3s,5S)-3-(methyl(4-((5-methyl-1H-pyrazol-3-yl)amino)-6-(tetrahydrofuran-3-yl)pyrimidin-2-yl)amino)-9-azabicyclo[3.3.1]nonan-9-yl)ethan-1-one]: the “Solubility at PH 7.4 (μmol)” value in the data set “Aqueous Solubility Assay” is given as “E (E represents a value below 10)”. The “Tall-1 IL2 pSTAT5 (pIC50)” value in data set [1] was “A (A represents a pIC50 value ≥8.0)”. In addition, the “JAK 3 (pKi)” value on JAK3 is “C (C represents a pKi value between 8 and 9 (Ki between 10 nM and 1 nM))”. Moreover, the “JAK 1 (pKi)” value on JAK1 is given as “A (A represents a pKi value ≥10 (Ki≤0.1 nM))”.
Take `CCS(=O)(=O)N1[C@@H]2CCC[C@H]1C[C@H](N(C)c1nc(Nc3cc(C)[nH]n3)cc(O[C@H]3CCOC3)n1)C2` [Compound 33, N^2-((1R,3s,5S)-9-(ethylsulfonyl)-9-azabicyclo[3.3.1]nonan-3-yl)-N2-methyl-N4-(5-methyl-1H-pyrazol-3-yl)-6-(((S)-tetrahydrofuran-3-yl)oxy)pyrimidine-2,4-diamine]: in “Aqueous Solubility Assay”, the “Solubility at PH 7.4 (μmol)” value is “D (D represents a value between 10 and 50)”. For the same compound, the “JAK 3 (pKi)” value on JAK3 is “B (B represents a pKi value between 9 and 10 (Ki between 1 nM and 0.1 nM))”. In addition, in data set [2], the “Solubility in PEG400 (mg/mL)” value is “B (B represents a value between 5 and 10)”; the “Solubility in Diisopropyl adipate (mg/mL)” value is recorded as “C (C represents a value below 5)”; the “Solubility in MCT (mg/mL)” value was “C (C represents a value below 5)”; the “Solubility in Propylene glycol (mg/mL)” value was “A (A represents a value above 10)”. The “JAK 1 (pKi)” value at JAK1 is listed as “A (A represents a pKi value ≥10 (Ki≤0.1 nM))”.
